Test system: MCF-7 cells
Assay: Cell growth inhibition by [3H]thymidine incorporation, PRPC fractions and PRPC/IEC/RPC sub-fractions
Format: cell-based, human
Protocol: (§1) Sub-confluent cells were serum-starved overnight and then were left untreated, i.e., no serum (−), were treated with serum (+) or with isolated V. amygdalina fractions 8, 9, 10, 14, 15, 16, 17, 18, 19, or 20 for 18 hours. Following incubation, all cells were pulsed with 1 μCi/ml [^3H]thymidine for an additional 4-6 hours as described in Example 2. The results represent the mean ±SD of three independent experiments. *P<0.05; **P<0.01.
as §1, with “100 μg/ml of” for “isolated”, “fractions” for “fractions 8, 9, 10, 14,”
Sub-confluent cells were serum-starved overnight and then were left untreated, i.e., no serum (−), were treated with serum (+) or with 100 ng/ml of V. amygdalina fractions 19-5-16, 19-5-17, or 19-5-13 for 18 hours. […]
Fraction 19 of the PRPC separation described in Example 3 was subjected to IEC fractionation as described in Example 4 to produce 10 IEC sub-fractions designated IEC sub-fractions 19-1 to 19-10. […] Finally, Two RPC sub-fractions, specifically 19-5-16 and 19-5-17, were further analyzed and shown to be pure peptides. […]

Substance: 19-5-16 (DTKDVVNVTG)
- inhibition of cell DNA synthesis (100 nanograms/ml, MCF-7, FIG. 5): 4 fold
- potency in growth inhibition assay (in words) (RPC sub-fractions of 19-5, assay as in Example 6): exceptionally high potency
